As a reminder, the inhibition is the change of the read-out against control, counted positive when it falls. As a reminder, the Ki is the dissociation constant of the complex between target and ligand, obtained from inhibition or displacement.

The target in one experiment is human μ-opiate receptor (Homo sapiens, UniProt P35372). In words: Affinity for the human μ-opiate receptor ([3H]-naloxone displacement, SPA, CHO-K1 membrane preparation). The experiment is classed as binding. Particulars: for inhibition at 1 µM: read-out: μ-Opioid receptor, % inhibition [1 μM]; for Ki: read-out: μ-Opioid receptor, Ki.
human μ-opiate receptor, sequence (P35372 whole entry): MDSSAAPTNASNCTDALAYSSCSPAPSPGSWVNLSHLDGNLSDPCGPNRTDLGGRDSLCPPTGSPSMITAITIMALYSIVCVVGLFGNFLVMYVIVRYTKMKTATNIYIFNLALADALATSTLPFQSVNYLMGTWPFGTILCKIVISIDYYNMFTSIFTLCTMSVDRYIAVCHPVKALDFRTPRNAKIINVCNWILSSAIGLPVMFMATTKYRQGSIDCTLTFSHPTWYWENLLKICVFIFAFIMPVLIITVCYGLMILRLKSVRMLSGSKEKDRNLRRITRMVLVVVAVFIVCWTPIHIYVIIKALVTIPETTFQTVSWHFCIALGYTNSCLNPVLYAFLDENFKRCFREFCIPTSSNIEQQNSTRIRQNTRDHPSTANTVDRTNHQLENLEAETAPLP
The target in another experiment is T1, Serotonin (5HT) reuptake (Rattus norvegicus, UniProt P31652).
T1 construct: synaptosomes are freshly isolated from areas of rat brain; from tissue; host or cells: rat brain synaptosomes (P2 fraction)
T1 sequence (P31652 whole entry): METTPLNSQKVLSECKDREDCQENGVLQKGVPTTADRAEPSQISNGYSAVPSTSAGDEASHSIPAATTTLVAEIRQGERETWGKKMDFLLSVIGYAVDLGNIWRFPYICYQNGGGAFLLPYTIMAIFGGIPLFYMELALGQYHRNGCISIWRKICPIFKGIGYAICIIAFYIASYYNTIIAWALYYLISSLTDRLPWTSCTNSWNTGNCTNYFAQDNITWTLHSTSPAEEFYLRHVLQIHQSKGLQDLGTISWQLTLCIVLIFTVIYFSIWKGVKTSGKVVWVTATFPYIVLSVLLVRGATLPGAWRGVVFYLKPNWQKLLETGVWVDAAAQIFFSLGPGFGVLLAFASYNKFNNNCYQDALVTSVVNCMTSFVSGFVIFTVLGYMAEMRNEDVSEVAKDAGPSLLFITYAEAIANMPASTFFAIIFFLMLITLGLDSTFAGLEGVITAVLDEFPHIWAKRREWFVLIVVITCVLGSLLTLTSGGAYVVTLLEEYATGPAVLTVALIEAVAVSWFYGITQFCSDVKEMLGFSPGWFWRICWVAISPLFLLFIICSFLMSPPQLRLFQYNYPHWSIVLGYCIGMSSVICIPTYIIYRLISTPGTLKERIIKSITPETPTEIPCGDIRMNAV
Kind of experiment: Serotonin (5HT) reuptake inhibition in rat brain synaptosomes (P2 fraction). The experiment is classed as biochemical. Particulars: for inhibition at 10 µM: read-out: Serotonin reuptake, % inhibition [10 μM]. From the text:
(§1) Noradrenaline (NA) and Serotonin (5HT) Reuptake Inhibition
(§2) In order to be able to carry out these studies in vitro, synaptosomes are freshly isolated from areas of rat brain. A so-called “P2” fraction prepared by the method of Gray and Whittaker (E. G. Gray and V. P. Whittaker (1962) J. Anat. 76, 79-88) is used in each case. For the NA uptake, these vesicular particles are isolated from the hypothalamus of male rat brains.
(§3) A detailed description of the method will be found in the literature (M. Ch. Frink, H. H. Hennies, W. Englberger, M. Haurand and B. Wilffert (1996) Arzneim.-Forsch./Drug Res. 46 (III), 11, 1029-1036).

For experiment [1], the target named is T2, Noradrenaline (NA) reuptake (Rattus norvegicus, UniProt Q63380).
T2 construct: synaptosomes are freshly isolated from areas of rat brain; from tissue; host or cells: rat hypothalamus synaptosomes (P2 fraction)
T2 sequence (Q63380 1-617): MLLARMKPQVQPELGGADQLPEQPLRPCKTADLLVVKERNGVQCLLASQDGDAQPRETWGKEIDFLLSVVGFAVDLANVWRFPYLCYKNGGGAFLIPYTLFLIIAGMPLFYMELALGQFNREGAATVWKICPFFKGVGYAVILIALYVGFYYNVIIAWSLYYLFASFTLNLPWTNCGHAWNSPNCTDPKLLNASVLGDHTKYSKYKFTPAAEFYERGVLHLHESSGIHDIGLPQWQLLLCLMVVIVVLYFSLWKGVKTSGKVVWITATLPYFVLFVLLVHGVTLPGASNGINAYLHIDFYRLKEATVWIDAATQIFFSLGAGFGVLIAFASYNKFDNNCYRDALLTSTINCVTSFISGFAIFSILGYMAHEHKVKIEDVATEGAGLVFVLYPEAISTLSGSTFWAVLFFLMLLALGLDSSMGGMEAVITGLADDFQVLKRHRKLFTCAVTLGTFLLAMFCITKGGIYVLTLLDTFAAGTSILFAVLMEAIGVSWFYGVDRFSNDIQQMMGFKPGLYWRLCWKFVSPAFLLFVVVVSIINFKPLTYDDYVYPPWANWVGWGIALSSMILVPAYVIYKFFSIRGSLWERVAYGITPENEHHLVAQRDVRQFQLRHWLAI
Kind of experiment: Noradrenaline (NA) reuptake inhibition in rat brain synaptosomes (hypothalamus, P2 fraction). The experiment is classed as biochemical. The settings on record: read-out: NA reuptake, % inhibition [10 μM].
Source text: as §1, §2, §3

[2] abbreviates: 1 μM test substance, inhibition of specific [3H]-naloxone binding.

Where a name gives a salt, the structure may show the parent alone. Read-outs that look alike come from different tables or passages of the source.

In the case of `CN(C)C(c1ccccc1)C1CCC(NC(=O)Nc2ccccc2[N+](=O)[O-])CC1` (stereo not shown) [compound 76, 1-(4-((dimethylamino)(phenyl)methyl)cyclohexyl)-3-(2-nitrophenyl)urea hydrochloride], the inhibition at 1 µM on human μ-opiate receptor (setting [2]) is 61%. Further, the inhibition at 10 µM at Serotonin (5HT) reuptake came out at 84%; in experiment [1], 100%.

On to `CN(C)C(c1cccc(F)c1)C1CCC(CCCO)CC1` (stereo not shown) [compound 140, 3-{4-[dimethylamino-(3-fluorophenyl)-methyl]-cyclohexyl}-propan-1-ol], for which the inhibition at 1 µM on human μ-opiate receptor (setting [2]) turned out to be 31%. For the same molecule, the figures for the inhibition at 10 µM (on Serotonin (5HT) reuptake; in experiment [1]) were 85% and 94%, respectively.

Turning to `CN(C)C(c1cccc(F)c1)C1CCC(N)CC1` (stereo not shown) [compound 21, 4-[dimethylamino-(3-fluorophenyl)-methyl]-cyclohexylamine], the inhibition at 1 µM on human μ-opiate receptor (setting [2]) came out at 48%. Also, the inhibition at 10 µM at Serotonin (5HT) reuptake worked out at 80%; in experiment [1] it was 90%.

Take `CCOC(=O)C=C1CCC(C(c2cccc(F)c2)N(C)C)CC1` (stereo not shown) [compound 129, {4-[dimethylamino-(3-fluorophenyl)-methyl]-cyclohexylidene}-acetic acid ethyl ester]: the inhibition at 1 µM at human μ-opiate receptor (setting [2]) is 47%. The Ki at human μ-opiate receptor came to 0.54 µM; on Serotonin (5HT) reuptake, 0.086 µM. Also, the results for the inhibition at 10 µM (at Serotonin (5HT) reuptake; in experiment [1]) were 91% and 81%, respectively.

For `CN(C)C(c1ccccc1)C1CCC(NS(=O)(=O)c2ccccc2[N+](=O)[O-])CC1` (stereo not shown) [compound 109, N-(4-((dimethylamino)(phenyl)methyl)cyclohexyl)-2-nitrobenzene-sulfonamide hydrochloride], the inhibition at 1 µM at human μ-opiate receptor (1 μM, sulfonamides (Table 17)) is 92%. Also, the Ki on human μ-opiate receptor (sulfonamides (Table 17)) worked out at 0.077 µM. Also, the inhibition at 10 µM on Serotonin (5HT) reuptake worked out at 93%; in experiment [1], 76%.

Take `CN(C)C(c1cccs1)C1CCC(CO)CC1` (stereo not shown) [compound 121, [4-(dimethylamino-thiophen-2-yl-methyl)-cyclohexyl]-methanol]: the inhibition at 1 µM at human μ-opiate receptor (setting [2]) was 61%. Moreover, the inhibition at 10 µM was 74% at Serotonin (5HT) reuptake and 66% in experiment [1].

On to `CN(C)C(c1cccs1)C1CCC(O)CC1` (stereo not shown) [compound 115, 4-(dimethylamino-thiophen-2-yl-methyl)-cyclohexanol], for which the inhibition at 1 µM at human μ-opiate receptor (setting [2]) was determined as 61%. The inhibition at 10 µM is 63% on Serotonin (5HT) reuptake and 47% in experiment [1].

For `CN(C)C(c1cccc(F)c1)C1CCC(CO)CC1` (stereo not shown) [compound 119, {4-[dimethylamino-(3-fluorophenyl)-methyl]-cyclohexyl}-methanol], the inhibition at 1 µM at human μ-opiate receptor (setting [2]) turned out to be 43%. Further, the figures for the inhibition at 10 µM (at Serotonin (5HT) reuptake; in experiment [1]) were 88% and 91%, respectively.

In the case of `CN(C)C(c1ccccc1)C1CCC(CC=O)CC1` (stereo not shown) [compound 46, [4-(Dimethylamino-phenyl-methyl)-cyclohexyl]-acetaldehyde], the inhibition at 1 µM at human μ-opiate receptor (setting [2]) was 75%. The inhibition at 10 µM at Serotonin (5HT) reuptake is 92%; in experiment [1] it was 95%.

In the case of `COc1ccc(S(=O)(=O)NC2CCC(C(c3ccccc3)N(C)C)CC2)cc1` (stereo not shown) [compound 107, N-(4-((dimethylamino)(phenyl)methyl)cyclohexyl)-4-methoxybenzene-sulfonamide hydrochloride], at human μ-opiate receptor (1 μM, sulfonamides (Table 17)), the inhibition at 1 µM was found to be 99%. The Ki on human μ-opiate receptor (sulfonamides (Table 17)) is 0.015 µM. For the same molecule, the inhibition at 10 µM came to 90% at Serotonin (5HT) reuptake and 78% in experiment [1].

With `CN(C)C(c1ccc(F)cc1)C1CCC(CN)CC1` (stereo not shown) [compound 33, [(4-aminomethyl-cyclohexyl)-(4-fluorophenyl)-methyl]-dimethylamine], the inhibition at 10 µM at Serotonin (5HT) reuptake turned out to be 95%; in experiment [1], 94%.

Take `CCOC(=O)CCC1CCC(C(CCc2ccccc2)N(C)C)CC1` (stereo not shown) [compound 142, 3-[4-(1-dimethylamino-3-phenyl-propyl)-cyclohexyl]-propionic acid ethyl ester]: the values for the inhibition at 10 µM (on Serotonin (5HT) reuptake; in experiment [1]) were 84% and 99%, respectively.

Regarding `Cc1ccc(C(C2CCC(=CC(=O)N(C)Cc3ccccc3)CC2)N2CCCCC2)cc1` (stereo not shown) [compound 496, N-benzyl-N-methyl-2-(4-(piperidin-1-yl(p-tolyl)methyl)cyclohexylidene)-acetamide], the values for the inhibition at 10 µM (on Serotonin (5HT) reuptake; in experiment [1]) were 18% and 26%, respectively.

Consider `CCOC(=O)C=CC1CCC(C(CCc2ccccc2)N(C)C)CC1` (stereo not shown) [compound 141, 3-[4-(1-dimethylamino-3-phenyl-propyl)-cyclohexyl]-acrylic acid ethyl ester], for which the inhibition at 10 µM was determined as 83% at Serotonin (5HT) reuptake and 98% in experiment [1].

Regarding `CN(C)C(c1ccc(Cl)cc1)C1CCC(C=O)CC1` (stereo not shown) [compound 37, 4-[(4-Chloro-phenyl)-dimethylamino-methyl]-cyclohexane-carbaldehyde], the inhibition at 10 µM on Serotonin (5HT) reuptake worked out at 75%; in experiment [1] it was 97%.

For the molecule `CN(C)C(c1cccc(F)c1)C1CCC(CC=O)CC1` (stereo not shown) [compound 52, {4-[Dimethylamino-(3-fluorophenyl)-methyl]-cyclohexyl}-acetaldehyde], the inhibition at 10 µM amounted to 94% on Serotonin (5HT) reuptake and 96% in experiment [1].

With `COc1cccc(NC(=O)CC2CCC(C(Cc3ccccc3)N3CCCC3)CC2)c1` (stereo not shown) [compound 492, N-(3-methoxyphenyl)-2-(4-(2-phenyl-1-(pyrrolidin-1-yl)ethyl)cyclohexyl)-acetamide], the inhibition at 10 µM at Serotonin (5HT) reuptake turned out to be 3%; in experiment [1], 54%.

For `CN(C)C(CCc1ccccc1)C1CCC(CC=O)CC1` (stereo not shown) [compound 70, [4-(1-Dimethylamino-3-phenyl-propyl)-cyclohexyl]-acetaldehyde], the inhibition at 10 µM on Serotonin (5HT) reuptake amounted to 70%; in experiment [1], 93%.

`CN(C)C(CCc1ccccc1)C1CCC(CCN)CC1` (stereo not shown) [compound 72, {1-[4-(2-amino-ethyl)-cyclohexyl]-3-phenyl-propyl}-dimethylamine]: the inhibition at 10 µM came out at 79% on Serotonin (5HT) reuptake and 91% in experiment [1].

Turning to `Cc1ccc(C(C2CCC(=CC(=O)NCCc3ccccc3)CC2)N2CCCCC2)cc1` (stereo not shown) [compound 494, N-phenethyl-2-(4-(piperidin-1-yl(p-tolyl)methyl)cyclohexylidene)acetamide], the inhibition at 10 µM at Serotonin (5HT) reuptake worked out at 40%; in experiment [1], 81%.

With `CN(C)C(c1ccc(F)cc1)C1CCC(CCN)CC1` (stereo not shown) [compound 51, 2-{4-[dimethylamino-(4-fluorophenyl)-methyl]-cyclohexyl}-ethylamine], the inhibition at 10 µM came out at 97% on Serotonin (5HT) reuptake and 98% in experiment [1].

As to `CN(C)C(c1ccc(Cl)cc1)C1CCC(CC=O)CC1` (stereo not shown) [compound 55, {4-[(4-Chlorophenyl)-dimethylamino-methyl]-cyclohexyl}-acetaldehyde], the inhibition at 10 µM at Serotonin (5HT) reuptake was 88%; in experiment [1], 95%.

Consider `CN(C)C(c1ccc(F)cc1)C1CCC(N)CC1` (stereo not shown) [compound 19, 4-[dimethylamino-(4-fluorophenyl)-methyl]-cyclohexylamine], for which the inhibition at 10 µM on Serotonin (5HT) reuptake came out at 87%; in experiment [1], 93%.

As for `CN(C)C(c1cccs1)C1CCC(C=O)CC1` (stereo not shown) [compound 40, 4-(Dimethylamino-thiophen-2-yl-methyl)-cyclohexanecarbaldehyde], the inhibition at 10 µM worked out at 78% on Serotonin (5HT) reuptake and 77% in experiment [1].

As to `CN(C)C(CCc1ccccc1)C1CCC(C=O)CC1` (stereo not shown) [compound 43, 4-(1-Dimethylamino-3-phenyl-propyl)-cyclohexane-carbaldehyde], the inhibition at 10 µM at Serotonin (5HT) reuptake came to 80%; in experiment [1], 98%.

For the origin of these results see patent publication US8058475B2, “Substituted cyclohexylmethyl compounds” (Gruenenthal GmbH, priority 2005, dated 2011).
